Structures are written as SMILES. Bounds are passed on as bounds.

Data set [1] addresses T1, P-gp (Homo sapiens, UniProt P08183). The data set is described as follows: Bidirectional transport assay of single components (substrate assay), with or without verapamil. The class given is in vitro ADME. Conditions: dog; for efflux ratio at 2 h: n = 3, read-out: ER (efflux ratio); for Papp A→B at 2 h / Papp B→A at 2 h: n = 3. Here is the method: (§1) Before experiments, cell monolayers were washed twice with HBSS and equilibrated with HBSS for 30 min at 37 °C. HBSS containing different components was added to either the apical or basolateral chamber (donor chamber), and blank HBSS was added to the opposite chamber (receiver chamber). The total volume is 0.5 mL in the apical chamber and 1.5 mL in the basolateral chamber. Aliquots (100 μL) were taken from the acceptor chamber every 30 min for 2 h, and the same volume of HBSS was replenished. The transport samples were prepared using solid-phase extraction (SPE). Bond Elut C18 cartridge (Agilent, Santa Clara, CA, USA, 100 mg, 1 mL, 100/pk) was preconditioned with 1 mL methanol and 1 mL deionized water. Both 100 μL of bidirectional assay sample solution and 20 μL of IS solution was loaded onto the SPE cartridge, and the eluent that passed through the SPE cartridge was discarded. After washing with 1 mL of deionized water, 1 mL of the eluent solvent was introduced into the SPE cartridge for collection. The target solutions were concentrated by nitrogen blowing and re-dissolved. The amount of seven constituents of AR was determined by LC-MS/MS. The apparent permeability (Papp) of each substrate across MDCK-MDR1 cell monolayers in both the basolateral to apical (B > A) and apical to basolateral (A > B) directions were calculated using the following formula: […]

The target in data set [2] is T1, P-gp. The data set is described as follows: Bidirectional transport assay of Rh-123 (P-gp inhibition). Type of data set: cell-based. Conditions: for Papp (AP-BL) of rhodamine-123 in combination with the compound / Papp (BL-AP) of rhodamine-123 in combination with the compound: dog, MDCK-MDR1, 120 min. The method, then: The HBSS containing 10 μM Rh-123 and different AR components as described in the above Section 4.6.1 were prepared. Additionally, The HBSS containing 10 μM Rh-123 and 0.625 μM valspodar were prepared as the positive control. Before experiments, cell monolayers were washed twice with HBSS and equilibrated with HBSS for 30 min at 37 °C. HBSS containing AR component and Rh-123 was added to either the apical or basolateral chamber (donor chamber), and HBSS containing AR component was added to the opposite chamber (receiver chamber). The total volume is 0.5 mL in the apical chamber and 1.5 mL in the basolateral chamber. Aliquots (100 μL) were taken from the acceptor chamber at 15 min, 30 min, 60 min, 90 min, and 120 min, and the same volume of blank HBSS was replenished. The positive control group was treated as above. The apparent permeability (Papp) of each substrate across MDCK-MDR1 cell monolayers in both the basolateral to apical (B > A) and apical to basolateral (A > B) directions were calculated using the following formula: […]

Data set [3] has as its target T1, P-gp. The data set is described as follows: Bidirectional transport assay of AR extract (seven components quantified). The class given is in vitro ADME. Conditions: dog; for Papp A→B at 2 h / Papp B→A at 2 h: component given as AR extract (10 mg/mL in HBSS). Here is the method:
as §1, with “The HBSS containing 10 mg/mL AR extract was prepared. Before” for “Before”, “AR extract” for “different components”

The test system of data set [4] is MDCK-MDR1 monolayer cell model. Nature of the data set: Permeability assay validating the MDCK-MDR1 monolayer cell model. Type of data set: in vitro ADME. Conditions: in 120 min. An excerpt:
In this study, an MDCK-MDR1 monolayer cell model was established.

[5] abbreviates: MDCK-MDR1, Single Component Group, Papp(BL-AP)/Papp(AP-BL).
Setting [6] is: MDCK-MDR1, with verapamil (concentration not stated), Single Component + Verapamil Group.
Where [7] appears, read: Single Component Group, MDCK-MDR1, 2.0 µM TAIII, 1.6 μM TBII, 4.7 μM MGF, 4.7 μM IMGF, 3.4 μM NMGF, 1.2 μM SSG, 3.9 μM BHI.
[8] abbreviates: Single Component Group, MDCK-MDR1.
Setting [9] is: MDCK-MDR1, AR Extract Group, n = 3, read-out: ER (efflux ratio).
Where [10] appears, read: MDCK-MDR1, Single Component + Verapamil Group.

T1 sequence (P08183 whole entry): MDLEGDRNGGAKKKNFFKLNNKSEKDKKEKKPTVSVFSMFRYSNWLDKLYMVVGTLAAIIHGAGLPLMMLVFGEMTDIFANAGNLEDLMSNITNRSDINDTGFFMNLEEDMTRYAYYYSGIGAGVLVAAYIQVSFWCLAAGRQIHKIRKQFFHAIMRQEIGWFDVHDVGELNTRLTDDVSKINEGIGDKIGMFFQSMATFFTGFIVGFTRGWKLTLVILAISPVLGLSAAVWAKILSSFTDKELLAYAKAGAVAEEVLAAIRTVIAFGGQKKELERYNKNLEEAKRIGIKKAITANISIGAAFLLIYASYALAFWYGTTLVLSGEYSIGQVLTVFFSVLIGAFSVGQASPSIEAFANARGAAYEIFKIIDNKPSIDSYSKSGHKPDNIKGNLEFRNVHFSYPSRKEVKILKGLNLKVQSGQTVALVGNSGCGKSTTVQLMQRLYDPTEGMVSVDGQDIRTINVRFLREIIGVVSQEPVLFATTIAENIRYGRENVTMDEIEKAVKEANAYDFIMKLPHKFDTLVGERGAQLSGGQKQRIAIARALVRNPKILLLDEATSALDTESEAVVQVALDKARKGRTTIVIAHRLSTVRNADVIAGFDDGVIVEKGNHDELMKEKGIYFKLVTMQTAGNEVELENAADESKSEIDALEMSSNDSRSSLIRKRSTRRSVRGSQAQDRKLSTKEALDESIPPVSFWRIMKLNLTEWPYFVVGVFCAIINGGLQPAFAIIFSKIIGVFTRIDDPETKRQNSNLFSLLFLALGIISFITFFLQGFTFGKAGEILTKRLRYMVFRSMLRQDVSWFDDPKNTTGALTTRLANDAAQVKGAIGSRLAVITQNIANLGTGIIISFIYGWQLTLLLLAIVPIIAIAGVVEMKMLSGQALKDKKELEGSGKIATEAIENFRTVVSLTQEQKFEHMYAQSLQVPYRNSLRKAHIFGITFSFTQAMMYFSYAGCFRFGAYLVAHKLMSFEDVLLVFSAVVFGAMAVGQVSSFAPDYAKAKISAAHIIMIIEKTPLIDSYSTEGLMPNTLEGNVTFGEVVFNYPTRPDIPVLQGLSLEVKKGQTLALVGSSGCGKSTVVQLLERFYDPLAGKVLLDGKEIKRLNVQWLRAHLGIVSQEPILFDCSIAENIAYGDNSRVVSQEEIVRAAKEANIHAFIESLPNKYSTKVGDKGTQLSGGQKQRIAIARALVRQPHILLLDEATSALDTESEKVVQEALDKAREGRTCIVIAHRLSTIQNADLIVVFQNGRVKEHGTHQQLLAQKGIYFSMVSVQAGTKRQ

By Papp A→B is commonly meant the apparent permeability from the apical to the basolateral side of a cell layer. For orientation: Papp B→A means how fast a substance crosses the layer from the basolateral side. Consider `COc1ccc(-c2oc3c(CC=C(C)C)c(O)cc(O)c3c(=O)c2O[C@@H]2O[C@@H](C)[C@H](O)[C@@H](O)[C@H]2O)cc1` [BHI, baohuoside I], for which the efflux ratio at 2 h on P-gp [1] (setting [5]) came out at 2.26; on P-gp [1] (setting [6]) it was 1.08. For the same compound, the Papp A→B at 2 h turned out to be 0.24 ×10⁻⁶ cm/s at P-gp [1] (setting [7]) and 0.155 ×10⁻⁶ cm/s on P-gp [3] (MDCK-MDR1, n = 3). The Papp B→A at 2 h on P-gp [1] (setting [8]) is 0.72 ×10⁻⁶ cm/s; on P-gp [3] (MDCK-MDR1, n = 3), 0.298 ×10⁻⁶ cm/s. The “Papp (AP-BL) of rhodamine-123 in combination with the compound” value (shortened to “Papp (AP-BL)”) on P-gp [2] was 1.73 ×10⁻⁶ cm/s. Besides, the “Papp (BL-AP) of rhodamine-123 in combination with the compound” value (shortened to “Papp (BL-AP)”) on P-gp [2] was found to be 2.53 ×10⁻⁶ cm/s.

`O=c1c2cc(O)c(O)cc2oc2c([C@@H]3O[C@H](CO)[C@@H](O)[C@H](O)[C@H]3O)c(O)cc(O)c12` [IMGF, isomangiferin]: the efflux ratio at 2 h at P-gp [1] (setting [5]) is < 2; on P-gp [1] (setting [6]), 0.55; at P-gp [3] (setting [9]), 0.91. Besides, the Papp A→B at 2 h was determined as 0.0651 ×10⁻⁶ cm/s at P-gp [1] (setting [7]) and 0.0546 ×10⁻⁶ cm/s on P-gp [3] (MDCK-MDR1, n = 3). In addition, the Papp B→A at 2 h on P-gp [1] (setting [8]) was 0.0702 ×10⁻⁶ cm/s; on P-gp [3] (MDCK-MDR1, n = 3), 0.0495 ×10⁻⁶ cm/s.

On to `O=c1c2cc(O)c(O)cc2oc2cc(O)c([C@@H]3O[C@H](CO)[C@@H](O)[C@H](O)[C@H]3O)c(O)c12` [MGF, mangiferin], for which the results for the efflux ratio at 2 h on P-gp [1] (setting [5]), at P-gp [1] (setting [6]) and at P-gp [3] (setting [9]) were > 2, 0.53 and 0.48, respectively. For the same compound, the apical-to-basolateral permeability (Papp A→B) at 2 h on P-gp [1] (setting [7]) worked out at 0.606 ×10⁻⁶ cm/s; on P-gp [3] (MDCK-MDR1, n = 3) it was 0.586 ×10⁻⁶ cm/s. In addition, the Papp B→A at 2 h was 1.35 ×10⁻⁶ cm/s at P-gp [1] (setting [8]) and 0.283 ×10⁻⁶ cm/s at P-gp [3] (MDCK-MDR1, n = 3). Further, the “Papp (AP-BL)” value at P-gp [2] was found to be 1.88 ×10⁻⁶ cm/s. Further, at P-gp [2], the “Papp (BL-AP)” value worked out at 2.36 ×10⁻⁶ cm/s.

In the case of `O=c1c2cc(O[C@@H]3O[C@H](CO)[C@@H](O)[C@H](O)[C@H]3O)c(O)cc2oc2cc(O)c([C@@H]3O[C@H](CO)[C@@H](O)[C@H](O)[C@H]3O)c(O)c12` [NMGF, neomangiferin], the efflux ratio at 2 h at P-gp [1] (setting [5]) is < 2; on P-gp [1] (setting [6]), 0.52; on P-gp [3] (setting [9]), 0.67. For the same compound, the Papp A→B at 2 h at P-gp [1] (setting [7]) worked out at 0.121 ×10⁻⁶ cm/s; at P-gp [3] (MDCK-MDR1, n = 3), 0.0976 ×10⁻⁶ cm/s. Besides, the Papp B→A at 2 h amounted to 0.137 ×10⁻⁶ cm/s on P-gp [1] (setting [8]) and 0.0654 ×10⁻⁶ cm/s at P-gp [3] (MDCK-MDR1, n = 3).

Consider `C[C@H]1CC[C@@]2(OC1)O[C@H]1C[C@H]3[C@@H]4CC[C@@H]5C[C@@H](O)CC[C@]5(C)[C@H]4CC[C@]3(C)[C@H]1[C@@H]2C` [SSG, sarsasapogenin], for which the Papp A→B at 2 h on P-gp [1] (setting [10]) stood at 0.0904 ×10⁻⁶ cm/s; at P-gp [1] (MDCK-MDR1, Single Component Group, 2.0 µM TAIII, 1.6 μM TBII, 4.7 μM MGF, 4.7 μM IMGF, 3.4 μM NMGF, 1.2 μM SSG, 3.9 μM BHI), 0.0374 ×10⁻⁶ cm/s; on P-gp [3] (MDCK-MDR1, n = 3), 0.0398 ×10⁻⁶ cm/s. For the same compound, the Papp B→A at 2 h came out at 0.0374 ×10⁻⁶ cm/s on P-gp [1] (setting [10]); 0.0566 ×10⁻⁶ cm/s on P-gp [1] (MDCK-MDR1, Single Component Group); 0.0347 ×10⁻⁶ cm/s at P-gp [3] (MDCK-MDR1, n = 3). For the same compound, the efflux ratio at 2 h on P-gp [1] (setting [10]) is 0.41; at P-gp [1] (setting [5]), < 2; on P-gp [3] (AR Extract Group, MDCK-MDR1, n = 3, read-out: ER (efflux ratio)), 0.87. For the same compound, the “ER (efflux ratio) of rhodamine-123 in combination with the compound” value at P-gp [2] (10 μM Rh-123 with AR component or 0.625 μM valspodar, control ER 2.46, MDCK-MDR1, n = 3) is “no statistical difference”.

Turning to `C[C@H]1CC[C@@]2(OC1)O[C@H]1C[C@H]3[C@@H]4CC[C@@H]5C[C@@H](O[C@@H]6O[C@H](CO)[C@H](O)[C@H](O)[C@H]6O[C@@H]6O[C@H](CO)[C@@H](O)[C@H](O)[C@H]6O)CC[C@]5(C)[C@H]4CC[C@]3(C)[C@H]1[C@@H]2C` [TAIII, timosaponin AIII], the efflux ratio at 2 h on P-gp [1] (setting [5]) is > 2; on P-gp [1] (setting [6]), 0.88; at P-gp [3] (setting [9]), 0.63. For the same compound, the Papp A→B at 2 h was 0.955 ×10⁻⁶ cm/s on P-gp [1] (setting [7]) and 3.05 ×10⁻⁶ cm/s at P-gp [3] (MDCK-MDR1, n = 3). For the same compound, the Papp B→A at 2 h at P-gp [1] (setting [8]) was 2.16 ×10⁻⁶ cm/s; at P-gp [3] (MDCK-MDR1, n = 3), 1.94 ×10⁻⁶ cm/s. Further, on P-gp [2], the “Papp (AP-BL)” value was determined as 1.78 ×10⁻⁶ cm/s. For the same compound, the “Papp (BL-AP)” value at P-gp [2] worked out at 2.17 ×10⁻⁶ cm/s.

On to `C[C@@H](CC[C@@]1(O)O[C@H]2C[C@H]3[C@@H]4CC[C@@H]5C[C@@H](O[C@@H]6O[C@H](CO)[C@H](O)[C@H](O)[C@H]6O[C@@H]6O[C@H](CO)[C@@H](O)[C@H](O)[C@H]6O)CC[C@]5(C)[C@H]4CC[C@]3(C)[C@H]2[C@@H]1C)CO[C@@H]1O[C@H](CO)[C@@H](O)[C@H](O)[C@H]1O` [TBII, timosaponin BII], for which the efflux ratio at 2 h was > 2 at P-gp [1] (setting [5]), 0.65 at P-gp [1] (setting [6]) and 0.83 on P-gp [3] (setting [9]). Further, the Papp A→B at 2 h at P-gp [1] (setting [7]) was found to be 0.719 ×10⁻⁶ cm/s; at P-gp [3] (MDCK-MDR1, n = 3) it was 1.81 ×10⁻⁶ cm/s. Moreover, the Papp B→A at 2 h on P-gp [1] (setting [8]) came out at 1.67 ×10⁻⁶ cm/s; at P-gp [3] (MDCK-MDR1, n = 3), 1.5 ×10⁻⁶ cm/s. The “Papp (AP-BL)” value on P-gp [2] is 1.85 ×10⁻⁶ cm/s. Moreover, the “Papp (BL-AP)” value at P-gp [2] was 2.34 ×10⁻⁶ cm/s.

In the case of `O=C([O-])c1ccccc1-c1c2ccc(=O)cc-2oc2cc([O-])ccc12.[Na+].[Na+]` [fluorescein sodium], the Pe value in data set [4] is recorded as 0.78 ± 0.02 × 10^−6 cm/s.

Source of the values: article PMC9740098, “In Vitro Evaluation of the Interaction of Seven Biologically Active Components in Anemarrhenae rhizoma with P-gp” (Molecules, 2022).
